Like-named read-outs stand apart in the source and are kept apart here.
Tests used:
WRN C727 = target: T1, WRN C727 (Homo sapiens, UniProt Q14191); assay: Target engagement, in vitro (lysate), OCI-AML2; format: binding; conditions: read-out: OCI-AML2 WRN C727 TE50 in vitro (lysate)
T1 construct: endogenous in cells; host or cells: OCI-AML2
How it was run: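 OCI-AML2 intact cells or lysates dosed with compound, then a cysteine-reactive probe; after trypsin digestion, probe-labelled peptides were streptavidin-enriched and quantified by nano-LC parallel reaction monitoring MS. Engagement (%) relative to DMSO controls.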

SW480 cells = assay: Cell growth assay (CellTiter-Glo 2.0), SW480 MSS cell line; conditions: Homo sapiens, SW480, 120 h, read-out: Cell Growth Inhibition GI50 SW480
HCT 116 cells = assay: Cell growth assay (CellTiter-Glo 2.0), HCT 116 MSI-H cell line; conditions: Homo sapiens, HCT-116, 120 h, read-out: Cell Growth Inhibition GI50 HCT-116
Protocol: The effects of compound on cellular viability were determined using the CellTiter-Glo® 2.0 Luminescent Cell Viability Assay (Promega, Madison, WI).
SW480 cells were seeded at 1,000 cells per well in Eagle's Minimum Essential Medium (EMEM) with 10% FBS. Both cell lines were seeded in a volume of 50 μL medium per well. […] The concentration range was adjusted as needed for compounds of different potencies. The cells treated with compounds were incubated for 5 days at 37° C. in 5% CO2. […] The plate was then read on a Clariostar plate reader (BMG Labtech, Cary, NC) in luminescence mode. The previously measured baseline cell viability was subtracted from the luminescence value of each well, and cell viability (% of DMSO) was plotted as a function of log compound concentration. The EC50 was then calculated for each compound using Dotmatics Software (San Diego, CA).

[1] = target: hWRN(519-1227)_C-H3CV-GFP-10His (Homo sapiens, UniProt Q14191); assay: Helicase Assay for WRN Inhibition (ATP-dependent, fluorescence based)
[2] = WRN Helicase IC50, 30 min preincubation with ATP, 30 min reaction

hWRN(519-1227)_C-H3CV-GFP-10His, sequence (Q14191 519-1227): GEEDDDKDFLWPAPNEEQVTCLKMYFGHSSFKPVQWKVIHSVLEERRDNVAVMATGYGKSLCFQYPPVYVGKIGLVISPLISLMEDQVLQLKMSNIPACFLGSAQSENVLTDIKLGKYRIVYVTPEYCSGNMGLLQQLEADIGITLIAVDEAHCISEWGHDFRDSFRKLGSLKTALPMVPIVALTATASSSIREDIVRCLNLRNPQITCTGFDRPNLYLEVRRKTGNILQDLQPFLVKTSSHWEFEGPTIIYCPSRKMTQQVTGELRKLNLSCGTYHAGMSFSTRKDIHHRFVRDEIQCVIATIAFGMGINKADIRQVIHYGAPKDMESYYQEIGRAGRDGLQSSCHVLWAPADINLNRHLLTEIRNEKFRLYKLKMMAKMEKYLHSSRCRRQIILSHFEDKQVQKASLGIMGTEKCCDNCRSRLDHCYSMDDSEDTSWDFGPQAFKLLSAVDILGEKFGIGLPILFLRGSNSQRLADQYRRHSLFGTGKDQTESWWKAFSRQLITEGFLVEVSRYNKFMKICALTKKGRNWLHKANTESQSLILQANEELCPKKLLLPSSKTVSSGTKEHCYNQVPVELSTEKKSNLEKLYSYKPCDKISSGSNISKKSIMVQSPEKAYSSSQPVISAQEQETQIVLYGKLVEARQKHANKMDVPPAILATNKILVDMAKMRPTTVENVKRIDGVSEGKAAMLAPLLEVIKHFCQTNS
T1 sequence (Q14191 whole entry): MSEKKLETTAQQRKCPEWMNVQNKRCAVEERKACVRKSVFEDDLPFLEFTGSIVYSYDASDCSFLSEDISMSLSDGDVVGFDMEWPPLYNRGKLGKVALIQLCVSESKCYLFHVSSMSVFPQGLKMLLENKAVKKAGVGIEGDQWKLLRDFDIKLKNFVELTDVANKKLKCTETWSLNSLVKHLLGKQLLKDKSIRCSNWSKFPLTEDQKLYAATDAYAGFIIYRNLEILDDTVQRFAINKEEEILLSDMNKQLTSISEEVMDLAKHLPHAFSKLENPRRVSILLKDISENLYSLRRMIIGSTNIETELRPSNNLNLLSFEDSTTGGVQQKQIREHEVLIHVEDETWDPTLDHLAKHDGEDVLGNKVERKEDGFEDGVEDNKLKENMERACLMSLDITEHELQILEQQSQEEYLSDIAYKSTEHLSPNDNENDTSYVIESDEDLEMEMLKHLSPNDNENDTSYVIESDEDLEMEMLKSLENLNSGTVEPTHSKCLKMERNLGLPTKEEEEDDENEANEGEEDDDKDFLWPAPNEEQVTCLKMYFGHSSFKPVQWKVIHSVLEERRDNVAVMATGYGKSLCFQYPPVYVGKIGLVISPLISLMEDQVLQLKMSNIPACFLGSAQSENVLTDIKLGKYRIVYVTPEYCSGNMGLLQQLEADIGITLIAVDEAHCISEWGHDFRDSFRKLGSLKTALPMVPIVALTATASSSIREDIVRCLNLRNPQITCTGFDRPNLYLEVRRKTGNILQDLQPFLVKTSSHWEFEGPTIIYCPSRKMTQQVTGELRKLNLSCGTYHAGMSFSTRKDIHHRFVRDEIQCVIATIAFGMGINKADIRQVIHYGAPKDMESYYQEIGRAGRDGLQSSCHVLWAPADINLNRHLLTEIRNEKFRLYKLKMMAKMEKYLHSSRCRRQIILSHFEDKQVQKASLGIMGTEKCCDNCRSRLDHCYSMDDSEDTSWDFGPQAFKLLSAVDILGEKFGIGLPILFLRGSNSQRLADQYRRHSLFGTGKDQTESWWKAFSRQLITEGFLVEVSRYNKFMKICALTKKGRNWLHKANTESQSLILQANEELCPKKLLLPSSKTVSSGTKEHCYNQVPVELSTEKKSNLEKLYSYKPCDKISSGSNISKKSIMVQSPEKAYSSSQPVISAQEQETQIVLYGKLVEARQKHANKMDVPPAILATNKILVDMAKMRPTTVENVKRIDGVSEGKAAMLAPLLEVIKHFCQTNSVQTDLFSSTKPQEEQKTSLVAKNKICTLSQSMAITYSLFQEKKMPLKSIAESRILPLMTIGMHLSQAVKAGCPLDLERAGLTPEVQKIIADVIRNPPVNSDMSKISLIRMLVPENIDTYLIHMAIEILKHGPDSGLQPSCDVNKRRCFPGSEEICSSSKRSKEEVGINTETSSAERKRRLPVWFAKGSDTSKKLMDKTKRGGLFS

IC50 (WRN C727) | GI50 (SW480 cells) | GI50 (HCT 116 cells) | IC50 [1, 2] | IC50 [1] | Structure (SMILES)
2.19 µM | 7.4 µM | 0.26 µM |  | 0.91 µM | COC(=O)C=C1CN(C(=O)c2cnc(C(C)(C)C)nc2Oc2ccccc2)C1 [Example 191, methyl 2-(1-(2-(tert-butyl)-4-phenoxypyrimidine-5-carbonyl)azetidin-3-ylidene)acetate]
6.24 µM | 6.19 µM | 0.709 µM | 1.69 µM |  | C[C@@H](/C=C/S(C)(=O)=O)NC(=O)c1cnc(C2CCCC2)nc1OC1CCCC1 [Example 197, (S,E)-2-cyclopentyl-4-(cyclopentyloxy)-N-(4-(methylsulfonyl)but-3-en-2-yl)pyrimidine-5-carboxamide]
21.7 µM | > 10 µM | 3.6 µM | 4.5 µM |  | C[C@@H](/C=C/S(C)(=O)=O)NC(=O)c1cnc(C2=CCCC2)cc1Oc1ccccc1 [Example 200, (S,E)-6-(cyclopent-1-en-1-yl)-N-(4-(methylsulfonyl)but-3-en-2-yl)-4-phenoxynicotinamide]
75 µM | > 10 µM | 7.2 µM | 8.6 µM |  | C[C@@H](/C=C/S(C)(=O)=O)NC(=O)c1ccc(C2=CCCC2)nc1Oc1ccccc1 [Example 202, (S,E)-6-(cyclopent-1-en-1-yl)-N-(4-(methylsulfonyl)but-3-en-2-yl)-2-phenoxynicotinamide]
> 100 µM | 12.7 µM | 2.16 µM | 11 µM |  | CC(C)=Cc1ncc(C(=O)N[C@@H](C)/C=C/S(C)(=O)=O)c(Oc2ccccc2)n1 [Example 213, (S,E)-2-(2-methylprop-1-en-1-yl)-N-(4-(methylsulfonyl)but-3-en-2-yl)-4-phenoxypyrimidine-5-carboxamide]
> 100 µM | > 19.5 µM | 2.47 µM | 10 µM |  | CC(C)Cc1ncc(C(=O)N[C@@H](C)/C=C/S(C)(=O)=O)c(Oc2ccccc2)n1 [Example 214, (S,E)-2-isobutyl-N-(4-(methylsulfonyl)but-3-en-2-yl)-4-phenoxypyrimidine-5-carboxamide]
13.8 µM | > 10 µM | 2.2 µM | 7.74 µM |  | C[C@@H](/C=C/S(C)(=O)=O)NC(=O)c1cnc(C2(O)CCCC2)nc1Oc1ccccc1 [Example 216, (S,E)-2-(1-hydroxycyclopentyl)-N-(4-(methylsulfonyl)but-3-en-2-yl)-4-phenoxypyrimidine-5-carboxamide]
17.1 µM | > 29.3 µM | 1.38 µM | 4.3 µM |  | C[C@@H](/C=C/S(C)(=O)=O)NC(=O)c1cnc(C(C)(C)O)nc1Oc1ccccc1 [Example 218, (S,E)-2-(2-hydroxypropan-2-yl)-N-(4-(methylsulfonyl)but-3-en-2-yl)-4-phenoxypyrimidine-5-carboxamide]
20 µM | 52 µM | 2 µM | 8.3 µM |  | COC(C)(C)c1ncc(C(=O)N[C@@H](C)/C=C/S(C)(=O)=O)c(Oc2ccccc2)n1 [Example 221, (S,E)-2-(2-methoxypropan-2-yl)-N-(4-(methylsulfonyl)but-3-en-2-yl)-4-phenoxypyrimidine-5-carboxamide]
1.3 µM | > 15 µM | 0.133 µM | 0.444 µM |  | C[C@@H](/C=C/S(C)(=O)=O)NC(=O)c1cnc(C23CC(C2)C3)nc1Oc1ccccc1 [Example 222, (S,E)-2-(bicyclo[1.1.1]pentan-1-yl)-N-(4-(methylsulfonyl)but-3-en-2-yl)-4-phenoxypyrimidine-5-carboxamide]
0.23 µM | 19 µM | 0.0539 µM | 0.18 µM |  | C[C@@H](/C=C/S(C)(=O)=O)NC(=O)c1cnc(C(F)(F)C2CC2)nc1Oc1ccccc1 [Example 223, (S,E)-2-(cyclopropyldifluoromethyl)-N-(4-(methylsulfonyl)but-3-en-2-yl)-4-phenoxypyrimidine-5-carboxamide]
0.81 µM | 14 µM | 0.0166 µM | 0.11 µM |  | CCC(F)(F)c1ncc(C(=O)N[C@H](/C=C/S(C)(=O)=O)C2CC2)c(Oc2ccccc2)n1 [Example 230, (S,E)-N-(1-cyclopropyl-3-(methylsulfonyl)allyl)-2-(1,1-difluoropropyl)-4-phenoxypyrimidine-5-carboxamide]
0.42 µM | 61 µM | 0.038 µM | 0.21 µM |  | CC(F)(F)c1cc(Oc2ccccc2)c(C(=O)N[C@H](/C=C/S(C)(=O)=O)C2CC2)cn1 [Example 231, (S,E)-N-(1-cyclopropyl-3-(methylsulfonyl)allyl)-6-(1,1-difluoroethyl)-4-phenoxynicotinamide]

The remaining lines, values behind:

Structure (SMILES) | IC50 (WRN C727) | GI50 (SW480 cells) | GI50 (HCT 116 cells) | IC50 [1, 2] | IC50 [1]
C[C@@H](/C=C/S(C)(=O)=O)NC(=O)c1cnc(OC2CCCC2)nc1Oc1ccccc1 [Example 165, (S,E)-2-(cyclopentyloxy)-N-(4-(methylsulfonyl)but-3-en-2-yl)-4-phenoxypyrimidine-5-carboxamide] | 22.6 µM | > 10 µM | 2.7 µM | 4.1 µM | 
C[C@@H](/C=C/S(C)(=O)=O)NC(=O)c1cnc(N2C3CCC2CC3)nc1Oc1ccccc1 [Example 166, (S,E)-2-(7-azabicyclo[2.2.1]heptan-7-yl)-N-(4-(methylsulfonyl)but-3-en-2-yl)-4-phenoxypyrimidine-5-carboxamide] | 8.93 µM | > 10 µM | 0.69 µM | 3.6 µM | 
C[C@@H](/C=C/S(C)(=O)=O)NC(=O)c1cnc(N2CCCC2)nc1Oc1ccccc1 [Example 168, (S,E)-N-(4-(methylsulfonyl)but-3-en-2-yl)-4-phenoxy-2-(pyrrolidin-1-yl)pyrimidine-5-carboxamide] | 9.23 µM | 17 µM | 1.6 µM | 4.4 µM | 
C[C@@H]1CC[C@H](C)N1c1ncc(C(=O)N[C@@H](C)/C=C/S(C)(=O)=O)c(Oc2ccccc2)n1 [Example 171, 2-((2R,5S)-2,5-dimethylpyrrolidin-1-yl)-N—((S,E)-4-(methylsulfonyl)but-3-en-2-yl)-4-phenoxypyrimidine-5-carboxamide] | 4.45 µM | 8.1 µM | 0.434 µM | 1.19 µM | 
C[C@@H](/C=C/S(C)(=O)=O)NC(=O)c1cnc(N2CCCC2(C)C)nc1Oc1ccccc1 [Example 174, (S,E)-2-(2,2-dimethylpyrrolidin-1-yl)-N-(4-(methylsulfonyl)but-3-en-2-yl)-4-phenoxypyrimidine-5-carboxamide] | 11.2 µM | 11 µM | 2.2 µM | 6.8 µM | 
C[C@@H](/C=C/S(C)(=O)=O)NC(=O)c1cnc(N2CCC[C@@H]2C)nc1Oc1ccccc1 [Example 175, 2-((S)-2-methylpyrrolidin-1-yl)-N—((S,E)-4-(methylsulfonyl)but-3-en-2-yl)-4-phenoxypyrimidine-5-carboxamide] | 20 µM | 12 µM | 2.2 µM | 6.8 µM | 
C[C@@H]1CCCN1c1ncc(C(=O)N[C@@H](C)/C=C/S(C)(=O)=O)c(Oc2ccccc2)n1 [Example 176, 2-((R)-2-methylpyrrolidin-1-yl)-N—((S,E)-4-(methylsulfonyl)but-3-en-2-yl)-4-phenoxypyrimidine-5-carboxamide] | 1.66 µM | 13 µM | 0.44 µM | 1.6 µM | 
CS(=O)(=O)/C=C/[C@@H](NC(=O)c1cnc(N2CCC2)nc1Oc1ccccc1)C1CC1 [Example 181, (S,E)-2-(azetidin-1-yl)-N-(1-cyclopropyl-3-(methylsulfonyl)allyl)-4-phenoxypyrimidine-5-carboxamide] | 27.2 µM | 17 µM | 0.0884 µM | 0.87 µM | 
CS(=O)(=O)/C=C/[C@@H](NC(=O)c1cnc(N2CC(F)C2)nc1Oc1ccccc1)C1CC1 [Example 182, (S,E)-N-(1-cyclopropyl-3-(methylsulfonyl)allyl)-2-(3-fluoroazetidin-1-yl)-4-phenoxypyrimidine-5-carboxamide] | 4.86 µM | 19 µM | 0.108 µM | 1.1 µM | 
CN(CC(F)(F)F)c1ncc(C(=O)N[C@H](/C=C/S(C)(=O)=O)C2CC2)c(Oc2ccccc2)n1 [Example 184, (S,E)-N-(1-cyclopropyl-3-(methylsulfonyl)allyl)-2-(methyl(2,2,2-trifluoroethyl)amino)-4-phenoxypyrimidine-5-carboxamide] | 1.3 µM | 3.1 µM | 0.191 µM | 2.4 µM | 
CCN(C)c1ncc(C(=O)N[C@H](/C=C/S(C)(=O)=O)C2CC2)c(Oc2ccccc2)n1 [Example 185, (S,E)-N-(1-cyclopropyl-3-(methylsulfonyl)allyl)-2-(ethyl(methyl)amino)-4-phenoxypyrimidine-5-carboxamide] | 1.72 µM | 5.4 µM | 0.0274 µM | 0.239 µM | 
CC(C)N(C)c1ncc(C(=O)N[C@H](/C=C/S(C)(=O)=O)C2CC2)c(Oc2ccccc2)n1 [Example 186, (S,E)-N-(1-cyclopropyl-3-(methylsulfonyl)allyl)-2-(isopropyl(methyl)amino)-4-phenoxypyrimidine-5-carboxamide] | 0.42 µM | 3.3 µM | 0.0195 µM | 0.2 µM | 
CC(=O)C=C1CN(C(=O)c2cnc(C(C)(C)C)nc2Oc2ccccc2)C1 [Example 190, 1-(1-(2-(tert-butyl)-4-phenoxypyrimidine-5-carbonyl)azetidin-3-ylidene)propan-2-one] | 0.69 µM | 5.4 µM | 0.53 µM |  | 0.31 µM

Source: patent US20250188040A1, “PHARMACEUTICAL COMPOSITIONS COMPRISING WRN HELICASE INHIBITORS” (Vividion Therapeutics, Inc., priority 2022, published 2025)
